From patent US10980824B2, “Pharmaceutical composition comprising quercetin-3-O-β-D-xylopyranoside for preventing or treating liver disease” (Hongcheon Institute of Medical Herb, priority 2016, dated 2021)

Experiments:
Format in all cases: in vivo, C57BL/6N mice
p-AMPKα = experiment: Western blot of p-AMPKα in liver tissue
Procedure: Expression of p-AMPKα, p-ACC, and CPT-1, which regulate intrahepatic lipid metabolism, was analyzed by western blot analysis to understand the mechanism involved in pathogenesis of alcoholic steatosis in detail. The specific western blot analysis method is as follows.
First, a mouse liver homogenate was prepared by using a RIPA buffer solution including a protease and tyrosine phosphatase inhibitor cocktail (Sigma). Protein concentrations of lysates were determined using a Bicinchoninic (BCA) Protein Assay Kit (Thermo Scientific, IL, USA) according to the manufacturer's instructions. Isolated soluble proteins ([…]) were separated on an 8% to 15% SDS-polyacrylamide gel. The separated proteins were electroblotted on a nitrocellulose transfer membrane (Bio-Rad, Hercules, Calif., USA). The membrane was incubated with 5% non-fat dry milk for 1 hour and then probed for antigens using antibodies diluted to 1:1,000, and was incubated with anti-pAMPKα, anti-AMPKα, anti-PACC, anti-ACC, anti-CYP2E1, anti-CPT1a (Cell Signaling Technology), and anti-β-actin (Santa Cruz Biotechnology) at 4° C. for 18 hours. […] Band density was measured using ImageJ (National Institutes of Health, Bethesda, Md., USA) and expressed as a multiple relative to β-actin.

[1] = test system: alcoholic steatosis-induced mice; experiment: Fat accumulation in the liver (visual observation, H&E staining, Oil Red O staining); conditions: 1 mg/kg oral 10 days
Procedure: 8-week-old C57BL/6N mice were purchased from DAEHAN BIOLINK to be used for efficacy evaluation and quarantined and acclimated in a vivarium of HONGCHEON INSTITUTE OF MEDICAL HERB for 7 days (relative temperature: 23±2° C., relative humidity: 50±5%, and a 12 h light-dark cycle) prior to the start of experimentation. Among them, 18 male mice with no abnormal symptoms were selected and used.
During a liquid diet adaptation period, a control group was restrictedly fed with a Lieber-DeCarli'82 control liquid diet (F1259SP, Bio-serv), and an alcohol-fed group was restrictedly fed with a Lieber-DeCarli'82 ethanol liquid diet (F1258SP, Bio-serv) using a Liquid diet feeding tube (9019, Bio-serv), and the diets were replaced with new ones at a preset time between 3 P.M. and 5 P.M.
After 5 days of the liquid diet adaptation period, the mice were orally administered with 1 mg/kg of quercetin-3-O-β-D-xylopyranoside (test substance) for 10 days and fed with a 5% alcohol liquid diet. At 11th day, between 7 A.M. and 9 A.M., a group not fed with alcohol (hereinafter referred to as Pair-fed group) was orally administered with a 45% maltose dextrin solution, and a group fed with a 5% liquid diet (hereinafter referred to as EtOH-fed) and a group administered with a test substance (hereinafter referred to as EtOH+B group) were orally fed with 31.5% ethanol. […]

[2] = test system: alcoholic steatosis-induced mice; experiment: Apoptosis in liver tissue by TUNEL assay; conditions: alcohol+compound group vs group fed with only alcohol (FIG. 15)
Procedure: DNA fragmentation characteristics of apoptosis were examined using a terminal deoxynucleotidyl transferase (TdT)-FragEL kit (Oncogene Research Products, San Diego, Calif.).
First, a tissue sample fixed in 4% paraformaldehyde was embedded in paraffin and sliced into 5 μm sections. Replicated sections were rehydrated and permeabilized with proteinase K (20 μg/mL) at 25° C. for 20 minutes. Subsequently, the sections were covered with 3% H2O2 for 5 minutes to inactivate endogenous peroxidase. After the sample was incubated in a TdT buffer solution (200 mM sodium-cacodylate, 30 mM Tris, 0.3 mg/mL BSA, 0.75 mM CoCl2, pH 6.6) for 5 minutes, slides were covered with TdT and biotinylated dUTP and incubated in a humidified chamber at 37° C. for 1.5 hours. Negative controls were incubated with biotinylated dUTP in a TdT buffer solution without enzyme. Reactions were terminated by adding a stop buffer (0.5 M EDTA, pH 8.0) thereto at room temperature for 5 minutes. After blocking with 4% BSA, the slides were incubated with a streptavidin-horseradish peroxidase conjugate for 30 minutes. Subsequently, the sections were incubated in DAB at room temperature for 12 minutes and counterstained with methyl green. Apoptotic cells were identified by stained properties and morphological criteria (cell contraction, chromatin condensation and/or margination, and apoptotic bodies).

Structure (SMILES): O=c1c(O[C@@H]2OC[C@@H](O)[C@H](O)[C@H]2O)c(-c2ccc(O)c(O)c2)oc2cc(O)cc(O)c12 [quercetin-3-O-β-D-xylopyranoside]
- expression level of pAMPK (p-AMPKα; 10 mg/kg (FIGS. 16A and 16B)): significantly increased
- expression levels of AMPK protein (p-AMPKα; among the groups (FIGS. 16A and 16B)): no difference
- amount of lipid accumulated in the liver, dissection and visual observation ([1]; EtOH+B vs EtOH-fed (FIG. 5)): significantly reduced
- amount of lipid droplets in the liver tissue, H&E and Oil Red O staining ([1]; EtOH+B vs EtOH-fed (FIG. 6)): significantly reduced
- degree of apoptosis in liver tissue [2]: significantly reduced
